From patent publication US11161854B2, “Indazolyl-spiro[2.2]pentane-carbonitrile derivatives as LRRK2 inhibitors, pharmaceutical compositions, and uses thereof” (Merck Sharp & Dohme Corp., priority 2017, dated 2021)

Target: GST-tagged truncated human mutant G2019S LRRK2 (Homo sapiens (Human), UniProt Q5S007, G2019S)
Test: LRRK2 G2019S Km ATP LanthaScreen Assay
Type: biochemical
Details: 134 μM ATP (Km ATP); fluorescein-labeled LRRKtide substrate; mean IC50 values

GST-tagged truncated human mutant G2019S LRRK2, sequence (Q5S007 970-2527 G2019S): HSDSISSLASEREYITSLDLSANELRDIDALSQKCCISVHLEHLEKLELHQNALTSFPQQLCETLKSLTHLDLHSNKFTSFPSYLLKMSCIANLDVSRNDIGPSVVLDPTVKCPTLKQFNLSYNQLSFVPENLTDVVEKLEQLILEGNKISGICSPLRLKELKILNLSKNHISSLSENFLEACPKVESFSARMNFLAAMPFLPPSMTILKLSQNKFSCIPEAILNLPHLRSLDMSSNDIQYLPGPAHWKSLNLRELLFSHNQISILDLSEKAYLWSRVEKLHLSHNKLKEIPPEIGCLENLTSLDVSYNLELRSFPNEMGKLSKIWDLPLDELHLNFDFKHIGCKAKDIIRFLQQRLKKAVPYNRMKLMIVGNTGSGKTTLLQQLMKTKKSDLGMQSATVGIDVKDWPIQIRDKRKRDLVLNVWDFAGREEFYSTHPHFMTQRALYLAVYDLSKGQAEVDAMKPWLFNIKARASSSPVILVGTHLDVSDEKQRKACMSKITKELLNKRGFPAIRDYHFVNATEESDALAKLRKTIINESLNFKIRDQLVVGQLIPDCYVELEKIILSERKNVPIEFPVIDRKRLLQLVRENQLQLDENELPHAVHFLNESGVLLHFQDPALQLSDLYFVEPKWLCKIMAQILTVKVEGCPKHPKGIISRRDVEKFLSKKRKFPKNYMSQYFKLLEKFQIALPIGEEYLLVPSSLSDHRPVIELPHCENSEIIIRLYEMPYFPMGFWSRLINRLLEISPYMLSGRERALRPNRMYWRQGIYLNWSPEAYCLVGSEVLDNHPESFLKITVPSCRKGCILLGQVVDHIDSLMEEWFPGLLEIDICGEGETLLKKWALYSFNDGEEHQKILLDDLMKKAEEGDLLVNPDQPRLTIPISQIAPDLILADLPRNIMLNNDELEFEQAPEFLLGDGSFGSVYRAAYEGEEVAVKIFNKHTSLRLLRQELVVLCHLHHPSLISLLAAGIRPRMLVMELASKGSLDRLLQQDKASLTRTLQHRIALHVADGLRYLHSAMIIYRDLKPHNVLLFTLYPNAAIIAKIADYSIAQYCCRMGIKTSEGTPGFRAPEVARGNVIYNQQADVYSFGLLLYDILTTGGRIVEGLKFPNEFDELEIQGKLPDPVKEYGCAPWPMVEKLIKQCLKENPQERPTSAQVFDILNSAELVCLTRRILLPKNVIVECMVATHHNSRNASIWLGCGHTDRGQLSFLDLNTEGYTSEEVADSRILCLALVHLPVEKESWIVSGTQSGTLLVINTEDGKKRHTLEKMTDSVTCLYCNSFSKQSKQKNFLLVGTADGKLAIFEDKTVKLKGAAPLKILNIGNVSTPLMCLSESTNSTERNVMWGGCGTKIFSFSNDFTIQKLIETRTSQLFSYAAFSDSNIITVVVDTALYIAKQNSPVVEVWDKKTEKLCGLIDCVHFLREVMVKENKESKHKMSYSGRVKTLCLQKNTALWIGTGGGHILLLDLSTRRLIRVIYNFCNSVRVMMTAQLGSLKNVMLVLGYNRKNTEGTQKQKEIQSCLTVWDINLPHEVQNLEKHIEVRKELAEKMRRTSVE

SMILES: CCc1nc(C)cc(-n2ncc3ccc([C@]4(C#N)CC45CC5)cc32)n1 [Example 4.27]
- IC50: 3.2 nM

SMILES: CC(C)(O)C12CC(C1)N(c1cc(-n3ncc4ccc([C@@]5(C#N)CC56CC6)cc43)ccn1)C2 [Example 6.1-2]
- IC50: 5.3 nM

SMILES: CC(C)(O)[C@@H]1CCN(c2cc(-n3ncc4ccc([C@@]5(C#N)CC56CC6)cc43)ccn2)C1 [Example 6.2-1]
- IC50: 1.8 nM

SMILES: CC(C)(O)[C@@H]1CCN(c2cc(-n3ncc4ccc([C@]5(C#N)CC56CC6)cc43)ccn2)C1 [Example 6.2-2]
- IC50: 0.9 nM

SMILES: CC(C)(O)C12CC(C1)N(c1cc(-n3ncc4ccc([C@]5(C#N)CC56CC6)cc43)cc(F)n1)C2 [Example 6.3]
- IC50: 15 nM

SMILES: C[C@H]1CN(c2cc(-n3ncc4ccc([C@]5(C#N)CC56CC6)cc43)cc(F)n2)CCN1C1COC1 [Example 6.4]
- IC50: 6.8 nM

SMILES: C[C@H]1CN(c2cc(-n3ncc4ccc([C@]5(C#N)CC56CC6)cc43)ccn2)CCN1S(C)(=O)=O [Example 6.5]
- IC50: 1.5 nM

SMILES: CC(C)(O)C12CC(C1)N(c1cc(-n3ncc4ccc([C@]5(C#N)CC56CC6)cc43)nc(N3CCC3)n1)C2 [Example 8.5, (S)-1-(1-(2-(azetidin-1-yl)-6-(4-(2-hydroxypropan-2-yl)-2-azabicyclo[2.1.1]hexan-2-yl)pyrimidin-4-yl)-1H-indazol-6-yl)spiro[2.2]pentane-1-carbonitrile]
- IC50: 9.8 nM

SMILES: Cc1nc(N2CCN(C3(C)COC3)CC2)cc(-n2ncc3ccc([C@]4(C#N)CC45CC5)cc32)n1 [Example 11.1, (S)-1-(1-(2-methyl-6-(4-(3-methyloxetan-3-yl)piperazin-1-yl)pyrimidin-4-yl)-1H-indazol-6-yl)spiro[2.2]pentane-1-carbonitrile]
- IC50: 0.6 nM

SMILES: Cc1nc(N2CC3(C2)CN(C2COC2)C3)cc(-n2ncc3ccc([C@]4(C#N)CC45CC5)cc32)n1 [Example 11.3]
- IC50: 454 nM

SMILES: Cc1nc(N2C[C@@H]3C[C@H]2CN3C2(C)COC2)cc(-n2ncc3ccc([C@]4(C#N)CC45CC5)cc32)n1 [Example 11.4]
- IC50: 8.6 nM

SMILES: Cc1cc(-n2ncc3ccc([C@]4(C#N)CC45CC5)cc32)cc(C)n1 [Example 11.5]
- IC50: 7.8 nM

SMILES: Cc1cc(-n2ncc3ccc([C@]4(C#N)CC45CC5)cc32)ncn1 [Example 11.7]
- IC50: 7.4 nM

SMILES: Cc1nc(N2CC3(CN(CC(F)(F)F)C3)C2)cc(-n2ncc3ccc(C4(C#N)CC45CC5)cc32)n1 (centres unmarked) [Example 12.2]
- IC50: 28.4 nM
